The subject of experiment [1] is ATXN3Q81.Luc fusion protein. As to the kind of experiment: Confirmation dose-response, ATXN3 levels by immunoblotting. The format is cell-based, human. The note with it: 293.ATXN3Q81Luc cells. The source says: Full-length ATXN3 (Accession number ABS29269) carrying either a normal or an expanded polyQ tract (Q26 or Q81) was subcloned in the vector pcDNA3.1 FLAG.firefly Luciferase. The mammalian expression plasmids pcDNA.FLAG.ATXN3Q26.Luc and pcDNA.FLAG.ATXN3Q81.Luc were confirmed by sequencing and shown to express N-terminal FLAG-tagged ATXN3Q26 or ATXN3Q81 fused with firefly Luciferase (Luc), respectively. These neomycin-resistant plasmids were transfected into HEK293 cells using Lipofectamine LTX (Invitrogen) during four hours, after which medium was replaced by growth medium (DMEM/10% fetal bovine serum (FBS)/1% penicillin/streptomycin (PS)). […] After one month of passage in selection medium, stably transfected clones for each cell line (293.ATXN3Q26Luc and 293.ATXN3Q81Luc) were pooled and frozen in liquid nitrogen. Stably transfected cell lines were maintained in selection medium except during treatment with specific compounds that were diluted in growth medium.
Protein lysates from cell cultures, mouse brain slices or mouse brains were obtained by lysis in RIPA buffer containing protease inhibitors (Complete, Roche Diagnostics), followed by sonication and centrifugation. The supernatants (soluble protein fractions) were collected, total protein concentration was determined using the BCA method (Pierce) and then stored at −80° C. Total proteins (50 μg from cell and slice cultures or 75 μg from brain regions of mice) were resolved in 10% SDS-PAGE gels, and corresponding PVDF membranes were incubated overnight at 4° C. with primary antibodies: mouse anti-ATXN3 (1H9) (1:2000; MAB5360, Millipore), goat anti-Luciferase (1:500; G7451, Promega), mouse anti-FLAG (M5) (1:500; IB13091, Sigma), rabbit anti-LC3 (1:500; PM036, MBL International Corporation), mouse anti-HSP90β (1:1000; ADI-SPA842, Enzo Life Sciences), rabbit anti-HSP90α (1:1000; ab2928, Abcam), mouse anti-HSP70 (1:500; SPA810, Enzo Life Sciences), rabbit anti-HSP40 (1:1000; #4868, Cell Signaling), rabbit anti-HSP25 (1:1000; ADI-SPA801, Enzo Life Sciences), rabbit anti-HSF1 (1:1000, ADI-SPA-901, Enzo Life Sciences), rabbit anti-ubiquitin (1:1000, Z 0458, Dako), rabbit anti-RAD23A (1:5000; TA307264, Origene), rabbit anti-RAD23B (1:2000; A302-306A, Bethyl Labs), rabbit anti-α-Tubulin (11H10) (1:10000; #2125, Cell Signaling), and mouse anti-GAPDH (1:1000; MAB374, Millipore). Pellets corresponding to insoluble protein fractions were resuspended in 100 μL of Laemmli buffer 2× and boiled for 10 min. Insoluble proteins were then quantified, and 100 μg were loaded in a filter trap assay apparatus and transferred to a nitrocellulose membrane (0.45 μm pore) that was incubated overnight with rabbit anti-MJD antibody (1:5000) at 4° C. Bound primary antibodies were visualized by incubation with a peroxidase-conjugated anti-mouse or anti-rabbit secondary antibody (1:10000; Jackson Immuno Research Laboratories) followed by treatment with the ECL-plus reagent (Western Lighting, PerkinElmer) and exposure to autoradiography films. Band intensity was quantified by densitometry using ImageJ.
In general terms: In western blotting, separated proteins are transferred to a membrane and probed.

The subject of another experiment is 5HT2A transcripts. The experiment in a line: Subchronic treatment of Q84 mice, quantitative RT-PCR. Type of experiment: in vivo, mouse. The note with it: brainstem of Q84 mice. Here is the method:
YACMJD84.2 transgenic mice were housed in cages with a maximum number of five animals and maintained in a standard 12-hour light/dark cycle with food and water ad libitum. Genotyping was performed using DNA isolated from tail biopsy at the time of weaning, and genotypes of all studied mice were confirmed using DNA extracted from tails collected post-mortem. […] Five hours after the final injection, mice were anesthetized with ketamine/xylazine and perfused transcardially with phosphate buffered saline (PBS) (for RNA and protein studies), and brains were immediately placed on dry ice and stored at −80° C.
Reverse transcription of 1.5 μg of total RNA per sample was performed using the iScript cDNA synthesis kit (Bio-RAD). Human ATXN3 and mouse Atxn3, Drd2, 5HT1A, 5HT2A and Gapdh (housekeeping) transcript levels were accessed by quantitative real-time PCR. Relative gene expression was determined using the ΔΔCT method, normalizing for Gapdh mRNA levels.

This note sets out measurements from patent publication US20190070174A1, “METHODS OF TREATING NEURODEGENERATIVE DISEASES” (priority 2016, published 2019).

In the case of `O=C1CCc2ccc(OCCCCN3CCN(c4cccc(Cl)c4Cl)CC3)cc2N1` [aripiprazole], in experiment [1], the “levels of ATXN3Q81.Luc fusion protein” value is “confirmed to decrease levels of ATXN3Q81.Luc fusion protein”. For the same compound, the 5HT2A transcripts entry in the experiment with 5HT2A transcripts is “increasing”.
